Experimental data reported in patent US20260176328A1, “ANTIBODY COMPOSITIONS AND METHODS FOR DISRUPTING NONTUBERCULOUS MYCOBACTERIA BIOFILMS” (priority 2022, published 2026).

Experiments:
Settings in all cases: 2 hr; for Percent killing of NRel: NRel induced with 5 μg HuTipMab
[1] = tested on: M. abscessus 19977; assay: Antibiotic mediated killing of planktonic and newly released (NRel) M. abscessus 19977
Method: (§1) To determine relative susceptibility of planktonic NTM to amikacin, biofilms were prepared and gently washed twice with DPBS as described above, then treated with 200 μL of either: 7H9 (growth control); 7H9+0.5 μg amikacin/mL for M. abscessus 19977, +12 μg amikacin/mL for M. avium, +0.7 μg amikacin/mL for M. abscessus clinical isolate 1 or +lug amikacin/mL for M. abscessus clinical isolate 3. […] Treated biofilms were incubated statically at 37° C. in 5% CO2 and humidity for 2 hr, after which 150 μL was collected from each well and dispensed into 1.5 mL Eppendorf microcentrifuge tubes, then pulse-vortexed with two sterile 3 mm glass beads (Fisher Scientific International, Inc., Hampton, NH) to disrupt aggregates. Suspensions were gently sonicated for 2 min in a waterbath sonicator (Ultrasonic Bath 2.8 L, Fisher Scientific) to further disrupt any aggregates. After sonication, samples were diluted and plated on Middlebrook 7H10 agar and incubated at 37° C. with 5% CO2 in a humidified atmosphere to assess relative CFU.
(§2) To determine azithromycin-mediated killing, the same protocol as above was used with one adjustment. […] Wells were treated with 200 μL of either: 7H9 (growth control); 7H9+5 μg azithromycin/mL for M. abscessus 19977, +16 μg azithromycin/mL for M. avium, +10 μg azithromycin/mL for M. abscessus clinical isolate 1, or +8 μg azithromycin/mL for M. abscessus clinical isolate 3. […] Percent killing was then calculated as [growth control CFU/mL-NRel or planktonic CFU/mL]/[growth control CFU/mL].

[2] = tested on: M. abscessus clinical isolate 3; assay: Antibiotic mediated killing of planktonic and NRel M. abscessus clinical isolate 3
Method: as §1, §2

[3] = tested on: M. abscessus clinical isolate 1; assay: Antibiotic mediated killing of planktonic and NRel M. abscessus clinical isolate 1
Method: as §1, §2

[4] = tested on: M. avium; assay: Antibiotic mediated killing of planktonic and newly released (NRel) M. avium
Method: as §1, §2

SMILES	Percent killing of NRel ([1]; 0.5 μg amikacin/mL (¼ MIC)) [%]	Percent killing of planktonic bacteria ([1]; 0.5 μg amikacin/mL (¼ MIC)) [%]	Percent killing of NRel ([2]; lug amikacin/mL) [%]	Percent killing of planktonic bacteria ([2]; lug amikacin/mL) [%]	Percent killing of NRel ([3]; 0.7 μg amikacin/mL) [%]	Percent killing of planktonic bacteria ([3]; 0.7 μg amikacin/mL) [%]	Percent killing of NRel ([4]; 12 μg amikacin/mL (¼ MIC)) [%]	Percent killing of planktonic bacteria ([4]; 12 μg amikacin/mL (¼ MIC)) [%]	Percent killing of NRel ([1]; 5 μg azithromycin/mL (½ MIC)) [%]	Percent killing of planktonic bacteria ([1]; 5 μg azithromycin/mL (½ MIC)) [%]	Percent killing of NRel ([2]; 8 μg azithromycin/mL) [%]	Percent killing of planktonic bacteria ([2]; 8 μg azithromycin/mL) [%]	Percent killing of NRel ([3]; 10 μg azithromycin/mL) [%]	Percent killing of planktonic bacteria ([3]; 10 μg azithromycin/mL) [%]	Percent killing of NRel ([4]; 16 μg azithromycin/mL (½ MIC)) [%]	Percent killing of planktonic bacteria ([4]; 16 μg azithromycin/mL (½ MIC)) [%]
NCC[C@H](O)C(=O)N[C@@H]1C[C@H](N)[C@@H](O[C@H]2O[C@H](CN)[C@@H](O)[C@H](O)[C@H]2O)[C@H](O)[C@H]1O[C@H]1O[C@H](CO)[C@@H](O)[C@H](N)[C@H]1O [amikacin, Amikacin]	61	23	47	21	45	28	41	17	–	–	–	–	–	–	–	–
CC[C@H]1OC(=O)[C@H](C)[C@@H](O[C@H]2C[C@@](C)(OC)[C@@H](O)[C@H](C)O2)[C@H](C)[C@@H](O[C@@H]2O[C@H](C)C[C@H](N(C)C)[C@H]2O)[C@](C)(O)C[C@@H](C)CN(C)[C@H](C)[C@@H](O)[C@]1(C)O [azithromycin, Azithromycin]	–	–	–	–	–	–	–	–	42	20	45	25	47	28	36	19
